Experimental data: ChEMBL document CHEMBL3392984, “Two new protein tyrosine phosphatase 1B inhibitors, hyattellactones A and B, from the Indonesian marine sponge Hyattella sp” (Bioorg Med Chem Lett, 2015)
Active and inactive are the calls of the source. No cut-off for these calls is given here.

Assays:
Jurkat = assay: Cytotoxicity against human Jurkat cells at 24.2 uM; format: functional, cell-based
[1] = molecular target: T1, Tyrosine-protein phosphatase non-receptor type 1 (Homo sapiens) (UniProt P18031); assay: Inhibition of PTP1B (unknown origin) at 24.2 uM
T1 sequence (whole entry): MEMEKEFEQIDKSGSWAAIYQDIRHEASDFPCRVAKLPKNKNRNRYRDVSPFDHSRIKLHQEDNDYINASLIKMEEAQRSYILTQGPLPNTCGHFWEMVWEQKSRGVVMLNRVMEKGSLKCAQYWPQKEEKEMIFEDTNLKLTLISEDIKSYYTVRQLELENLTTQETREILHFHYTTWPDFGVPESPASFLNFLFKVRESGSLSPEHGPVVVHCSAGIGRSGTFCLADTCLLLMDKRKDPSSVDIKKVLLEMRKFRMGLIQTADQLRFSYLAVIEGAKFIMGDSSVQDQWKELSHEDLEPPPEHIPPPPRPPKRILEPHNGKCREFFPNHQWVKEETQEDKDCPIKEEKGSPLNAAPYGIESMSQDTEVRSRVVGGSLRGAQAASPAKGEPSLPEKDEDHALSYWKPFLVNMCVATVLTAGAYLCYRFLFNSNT

[2] = molecular target: T2, Tyrosine-protein phosphatase non-receptor type 1 (Homo sapiens, UniProt P18031); assay: Inhibition of PTP1B (unknown origin)
T2 sequence (P18031 whole entry): T1 sequence (whole entry)

Row | inhibition [1] | IC50 [2] [µM] | SMILES | inhibition (Jurkat)
1 | inactive | 7.47 | CC[C@@]1(C)CCC[C@]2(C)[C@H]3C[C@@H](O)[C@]4(C)C5=C(CC[C@H]4[C@]3(C)CC[C@@H]12)[C@@H](C)OC5=O | inactive
2 | 42% | 7.45 | CC[C@]12CCCC(C)(C)[C@@H]1CC[C@]1(C)[C@@H]2C[C@@H](O)[C@]2(C)C3=C(CC[C@@H]12)[C@@H](C)OC3=O | inactive
3 | 42% | – | CC[C@]12CCCC(C)(C)[C@@H]1CC[C@]1(C)[C@@H]2C[C@@H](O)[C@]2(C)C3=C(CC[C@@H]12)[C@H](C)OC3=O | inactive
4 | inactive | – | CC[C@@]1(C)CCC[C@]2(C)[C@H]3C[C@@H](O)[C@]4(C)C5=C(CC[C@H]4[C@]3(C)CC[C@@H]12)[C@H](C)OC5=O | inactive
